Assays:
Type in all cases: cell-based
OAT3 [1] = target: T1, OAT3 (Homo sapiens, UniProt Q8TCC7); experiment: inhibition of 6-carboxyfluorescein uptake in HEK-293 cells stably overexpressing human OAT3
T1 construct: gene SLC22A8
T1 sequence (Q8TCC7 1-542): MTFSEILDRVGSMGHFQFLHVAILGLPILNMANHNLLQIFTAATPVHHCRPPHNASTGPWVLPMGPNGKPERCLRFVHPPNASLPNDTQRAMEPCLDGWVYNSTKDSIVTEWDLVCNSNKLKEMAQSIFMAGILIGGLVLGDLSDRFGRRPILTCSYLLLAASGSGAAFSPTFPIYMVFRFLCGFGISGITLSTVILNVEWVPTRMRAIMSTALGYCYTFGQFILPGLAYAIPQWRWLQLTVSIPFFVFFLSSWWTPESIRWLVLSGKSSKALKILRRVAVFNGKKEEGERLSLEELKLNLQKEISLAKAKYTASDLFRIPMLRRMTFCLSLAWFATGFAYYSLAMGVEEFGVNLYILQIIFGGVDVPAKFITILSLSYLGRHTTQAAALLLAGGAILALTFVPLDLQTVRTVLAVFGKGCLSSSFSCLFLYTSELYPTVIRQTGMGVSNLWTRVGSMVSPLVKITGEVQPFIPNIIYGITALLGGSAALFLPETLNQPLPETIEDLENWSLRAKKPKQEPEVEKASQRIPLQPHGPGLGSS

OAT1 = target: T2, OAT1 (Homo sapiens, UniProt Q4U2R8); experiment: inhibition of 6-carboxyfluorescein uptake in HEK-293 cells stably overexpressing human OAT1
T2 construct: gene SLC22A6
T2 sequence (Q4U2R8 1-563): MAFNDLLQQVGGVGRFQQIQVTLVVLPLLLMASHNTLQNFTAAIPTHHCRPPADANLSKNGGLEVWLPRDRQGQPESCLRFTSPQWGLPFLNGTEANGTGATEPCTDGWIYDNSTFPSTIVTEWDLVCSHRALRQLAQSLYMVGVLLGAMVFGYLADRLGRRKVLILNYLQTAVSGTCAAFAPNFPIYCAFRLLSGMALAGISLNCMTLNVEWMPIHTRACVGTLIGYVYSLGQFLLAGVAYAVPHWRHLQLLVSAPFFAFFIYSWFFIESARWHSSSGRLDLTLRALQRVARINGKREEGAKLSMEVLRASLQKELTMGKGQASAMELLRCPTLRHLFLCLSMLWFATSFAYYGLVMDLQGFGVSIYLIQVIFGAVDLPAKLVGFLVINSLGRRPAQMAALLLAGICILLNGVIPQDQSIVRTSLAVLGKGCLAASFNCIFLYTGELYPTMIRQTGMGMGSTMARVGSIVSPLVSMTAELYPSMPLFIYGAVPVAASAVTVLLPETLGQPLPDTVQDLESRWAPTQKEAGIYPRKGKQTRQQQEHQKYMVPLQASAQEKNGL

OAT3 [2] = target: T1, OAT3; experiment: inhibition of 6-carboxyfluorescein uptake in HEK-293 cells stably overexpressing human OAT3 (data not shown)

Row | Compound | IC50 (OAT3 [1]) | IC50 (OAT1) | IC50 (OAT3 [2])
1 | O=C(O)[C@@H](O)Cc1c[nH]c2ccccc12 [ILA, indolelactic acid] | 74.5 ± 23.3 µM | 229 ± 74.6 µM | 
2 | NCCc1c[nH]c2ccc(O)cc12 [serotonin] |  |  | 288 ± 167 µM

Reference: article PMC8102410, “Coordinate regulation of systemic and kidney tryptophan metabolism by the drug transporters OAT1 and OAT3” (The Journal of Biological Chemistry, 2021)
